Laboratory results reported in US9388126B2, “Sigma receptor ligands and methods of modulating cellular protein homeostasis using same” (Drexel University, priority 2012, dated 2016).

Key:
[1] = molecular target: T1, Sigma1-HA-His6 protein associations in MDA-MB-468 cells (Mus musculus, UniProt O55242); test: Ni-NTA co-purification of Sigma1-HA-His6 associated proteins; format: cell-based; conditions: 10 μM, 12 hours
T1 construct: expressed in transfected cells; host or cells: MDA-MB-468 breast adenocarcinoma cells
Description: FIG. 44, comprising FIGS. 44A-44D, illustrates the finding that p97/VCP is a Sigma1 associated protein. A novel assay was developed to evaluate Sigma1 ligand modulation of Sigma1 functions involving protein-protein interactions. FIG. 44A is an image of an immunoblot confirming expression of p97/VCP and Sigma1-HA-His6 in detergent soluble cell extracts added to Ni-NTA resin (input). FIG. 44B is an image of an immunoblot relating to eluate from a Ni-NTA affinity purified fraction. Co-isolation/co-purification of p97/VCP was accomplished with Sigma1-HA-His6, which was isolated/purified by Ni-NTA. […] FIG. 44C is an image of an immunoblot confirming expression of p97/VCP and Sigma1-HA-His6 in detergent-soluble cell extracts from MDA-MB-468 breast adenocarcinoma cells treated for 12 hours with 10 μM IPAG (Sigma1 putative antagonist); the extracts were added to Ni-NTA resin (input). FIG. 44D is an image of an immunoblot illustrating eluate from a Ni-NTA affinity purified fraction. Co-isolation/co-purification of p97/VCP was accomplished with Sigma1-HA-His6, which was isolated/purified by Ni-NTA. […] Molecular mass is presented in kilodaltons (kDa).
FIG. 45, comprising FIGS. 45A-45B, illustrates the finding that ubiquitylated proteins are bound to Sigma1. A novel assay was developed to evaluate Sigma1 ligand modulation of Sigma functions involving association with ubiquitylated proteins. […]

HER2/3 in SkBr-3 cells = test: HER2 and HER3 level immunoblots; format: cell-based, human; conditions: 10 μM for 1-to-24 hours; 1, 3, 10, 20 μM for 12 hours
Description: FIG. 67, comprising FIGS. 67A-67F, illustrates the finding that Sigma1 ligands may be used to modulate (in this case, decrease) the levels of growth factor receptors such as HER2 and HER3 in breast cancer cells, in the absence of detectable cell death. […] Short exposure to IPAG or lower dosage induces ubiquitin-mediated autophagosomal degradation of HER2/3. Prolonged IPAG treatment or higher dosage caused translational arrest. […] FIG. 67A is a set of immunoblots of HER2 following treatment with IPAG. Detergent soluble whole-cell lysates were solved by denaturing SDS-PAGE. (i) 1-to-24 hour (h) treatment with 10 μM IPAG or 11 μM thapsigargin (TG). (ii) Following 12 hour treatment with 1, 3, 10, 20 μM IPAG. FIG. 67B is a set of immunoblots of HER3 following treatment with IPAG. Detergent soluble whole-cell lysates were solved by denaturing SDS-PAGE. (i) 1-to-24 hour (h) treatment with 10 μM IPAG or 1 μM thapsigargin (TG). (ii) Following 12 hour treatment with 1, 3, 10, 20 μM IPAG. FIG. 67C is a set of immunoblots of detergent soluble whole-cell lysates solved by denaturing SDS-PAGE. […] (iii) Quantification of bands in (i). […] (ii) Quantification of HER3 band in DMSO (vehicle control) treated conditions. (iii) Quantification of HER3 band in IPAG treated conditions.

[2] = tested on: T47D and MDA-MB-468 cells; test: Cell cycle profile (G1, S, G2 phase cells); format: cell-based, human; conditions: 24 hours; IPAG 1 μM (T47D) or 10 μM (MDA-MB-468); (+)-SKF-10047 10 μM
Experimental: FIG. 30, comprising FIGS. 30A-30B, illustrates that Sigma1 antagonists mediate cell cycle arrest. […] FIG. 30A is a graph illustrating the percentage of G1, S, and G2 phase cells in T47D cells treated for 24 hours with DMSO (vehicle control), 1 μM IPAG (Sigma1 antagonist), or 10 μM (+)SKF-10047 (Sigma1 agonist). FIG. 30 B is a graph illustrating the percentage of G1, S, and G2 phase cells in MDA-MB-468 cells treated for 24 hours with DMSO (vehicle control), 10 μM IPAG (Sigma1 antagonist), or 10 μM (+)-SKF-10047 (Sigma1 agonist).

MDA-MB-468 cells = test: Cell death by trypan blue exclusion; format: cell-based, human
Experimental: Trypan blue exclusion and propidium iodide staining were used to quantify general cell death and the presence of apoptotic cell death was confirmed by immunoblot. The percentage of dead cells in a given population was determined by quantifying the number of trypan blue positive (dead) cells and dividing by the total number of trypan blue positive and negative cells.

T1 sequence (O55242 whole entry): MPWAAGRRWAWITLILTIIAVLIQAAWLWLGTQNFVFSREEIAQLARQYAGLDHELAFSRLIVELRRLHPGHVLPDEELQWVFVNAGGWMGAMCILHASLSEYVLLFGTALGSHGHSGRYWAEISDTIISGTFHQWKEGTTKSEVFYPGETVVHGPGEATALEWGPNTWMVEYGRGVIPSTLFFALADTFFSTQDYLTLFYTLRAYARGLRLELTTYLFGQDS

With `N=C(Nc1ccc(I)cc1)NC1C2CC3CC(C2)CC1C3` (centres unmarked) [IPAG, 1-(4-iodophenyl)-3-(2-adamantyl)guanidine] the “Sigma1-associated p97/VCP in Ni-NTA eluate” value [1] was “Lower levels of Sigma1-associated p97/VCP”, the “Sigma1-associated ubiquitylated proteins in Ni-NTA eluate” value [1] was “Increased levels of Sigma1-associated ubiquitylated proteins” and the “levels of HER2/3” value (HER2/3 in SkBr-3 cells) was “time and dose-dependently causes decreased levels of HER2/3”. For the same compound, the cell cycle profile [2] was “accumulation of breast adenocarcinoma cells in G1 phase of the cell cycle”, the “dead cells per well” value (MDA-MB-468 cells; 10 μM, 24 hours, with 3-MA (5 mM) or siRNA knockdown of Beclin1) was “over 33%” and the “proportion of dead cells (apoptotic cell death)” value (MDA-MB-468 cells; 10 μM, 48 hours of continuous treatment) was 30±2%. The “proportion of dead cells” value (MDA-MB-468 cells; 24 hours, IRE1α knockdown) was 47±8%, the “dead cells per well” value (MDA-MB-468 cells; 24 hours, combined treatment with IPAG and 3-MA) was 24±5% and the “proportion of dead cells” value (MDA-MB-468 cells; 24 hours, control siRNA transfected cells) was 9±4%. The “proportion of dead cells” value (MDA-MB-468 cells; by 72 hours) was over 75% and the “dead cells per well” value (MDA-MB-468 cells; knockdown of ATF4) was 30±9%.
